According to US5945436A, “Pyridylmethyl nitriles, amides and thioamides useful as fungicides” (Uniroyal Chemical Company, Inc., priority 1997, dated 1999):

Tests used:
[1] = system: Cercosporidium personatum; assay: Fungal germination and growth, treated disc on agar, scored (CER PER); type: cell-based; design: key: 100: Complete inhibition of germination and growth.; 80: Nearly complete inhibition but some growth.; 50: Partial inhibition of growth or, early complete inhibition but later growth begins.; 20: Some inhibition of growth, but not significant.; 0: No inhibition of growth; conditions: disc dipped in 500 mg/l, 29° C., numerical score 0-100, spore suspension
Method in brief: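 Scoring ran from 100, complete inhibition of germination and growth, down to 0, none, after incubation at 29° C. Filter discs (11 mm) soaked in test solution and air-dried to remove acetone were set on agar and inoculated with spores (20,000 spores/ml, two drops each); untreated discs served as controls.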

[2] = system: Pyricularia oryzae; assay: whole plant or invertebrate; type: in vivo; conditions: for pest or weed control at 1000 µg/mL: Pyricularia oryzae, in Hordeum vulgare, foliar, 216 h, read-out: Percent Reduction of Disease, PYR ORY, barley, foliar, 1,000 mg/l
[3] = system: Helminthosporium sativum; assay: Barley spot blotch, foliar treatment (HEL SAT); type: in vivo; conditions: foliar, 1,000 mg/l; for pest or weed control at 1000 µg/mL: Helminthosporium, foliar, 216 h, read-out: Percent Reduction of Disease, HEL SAT
Method in brief: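 Percent control of H. sativum blotch was computed after foliar spraying of six-day-old "Robust" barley (10 plants/pot) at 1,000 mg/l versus unsprayed pots. Spore inoculation followed spraying, then 24 h in a 99% humidity chamber and eight days in a 21° C greenhouse.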

[4] = system: Erysiphe cichoracearum; assay: Powdery mildew of cucumber, systemic root uptake (CMS); type: in vivo; conditions: 45 ml of 250 mg/l, 8 days after inoculation
Method in brief: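 Pot soil of barley (BMS) and cucumber (CMS) plants was drenched with 45 ml of a 250 mg/l acetone/Tween 20 aqueous emulsion, with untreated plants as controls. Disease was scored on a rating scale that included intermediate grades.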

[5] = system: Septoria nodorum; assay: Fungal growth inhibition, treated disc on agar (SEP NOD); type: cell-based; conditions: disc dipped in 500 mg/l, 29° C.; for inhibition at 500 µg/mL: Parastagonospora nodorum, read-out: Percent Growth Inhibition, SEP NOD
[6] = system: Colletotrichum gossypii; assay: Fungal growth inhibition, treated disc on agar (COL GOS); type: cell-based; conditions: disc dipped in 500 mg/l, 29° C.; for inhibition at 500 µg/mL: Colletotrichum gossypii, read-out: Percent Growth Inhibition, COL GOS
Text: (§1) Filter paper discs, each 11 mm. in diameter, were dipped in each of the test solutions. The discs were allowed to air dry to drive off the acetone solvent. A number of untreated discs were used as controls.
(§2) The treated and untreated discs were then placed on agar plates and one of the following fungus species: Septoria nodorum (SEP NOD), Botrytis cinerea (BOT CIN), Fusarium oxysporum (FUS OXY), Pythium ultimum (PYT ULT), Rhizoctonia solani (RHI SOL), Colletotrichum gossypii (COL GOS), and Scierotinia minor (SCL MIN), was added to the center of each disc in the form of a culture plug with the fungus mat in contact with the paper of the test disc. Cercosporidium personatum (CER PER), was added to discs as a spore suspension (20,000 spores/ml) to the disc (two drops of spore suspension per disc), rather than a mycelial culture plug. The plates were then incubated at 29° C. in an oven.
(§3) With the exception of the discs containing Cercosporidium personatum, the discs were evaluated by first measuring the radius from the center of the fungus colony on the treated discs and on the untreated discs. Percent growth inhibition of each of the compounds tested was determined as a function of the difference between the radius of the fungus colony on the treated disc versus the radius of the fungus colony on the untreated disc.

[7] = system: Scierotinia minor; assay: Fungal growth inhibition, treated disc on agar (SCL MIN); type: cell-based; conditions: disc dipped in 500 mg/l, 29° C.; for inhibition at 500 µg/mL: read-out: Percent Growth Inhibition, SCL MIN
Text: as §1, §2, §3

[8] = system: Botrytis cinerea; assay: Fungal growth inhibition, treated disc on agar (BOT CIN); type: cell-based; conditions: disc dipped in 500 mg/l, 29° C.; for inhibition at 500 µg/mL: Botrytis cinerea, read-out: Percent Growth Inhibition, BOT CIN
Text: as §1, §2, §3

SMILES	CER PER inhibition score [1]	pest or weed control at 1000 µg/mL [2]	pest or weed control at 1000 µg/mL [3]	Percent Reduction of Disease, CMS [4]	inhibition at 500 µg/mL [5]	inhibition at 500 µg/mL [6]	inhibition at 500 µg/mL [7]	inhibition at 500 µg/mL [8]	Percent Reduction of Disease, PYR ORY ([2]; barley, foliar, 1,000 mg/l)	Percent Reduction of Disease, HEL SAT [3]	Percent Growth Inhibition, SEP NOD [5]	Percent Growth Inhibition, COL GOS [6]	Percent Growth Inhibition, SCL MIN [7]	Percent Growth Inhibition, BOT CIN [8]
CC=CCC(C#N)(CCc1ccc(F)cc1)c1cccnc1 (stereo not drawn) [Compound 59]	0	85%	90%	0%	100%	100%	70%	100%	–	–	–	–	–	–
CCCCCC(C#N)(CCc1ccc(F)cc1)c1cccnc1 (stereo not drawn) [Compound 60]	0	70%	90%	0%	100%	30%	100%	100%	–	–	–	–	–	–
C#CCC(CCc1ccccc1)(C(N)=S)c1cccnc1 (stereo not drawn) [Compound 61, α-(2-phenylethyl)-α-(2-propynyl)-3-pyridinethanethioamide]	100	50%	85%	40%	20%	100%	100%	100%	–	–	–	–	–	–
CCCCCC(CCc1ccc(F)cc1)(C(N)=O)c1cccnc1 (stereo not drawn) [Compound 62]	0	0%	0%	20%	0%	25%	100%	0%	–	–	–	–	–	–
CCCCC(C#N)(CCCc1ccccc1OC)c1cccnc1 (stereo not drawn) [Compound 63]	0	0%	0%	0%	100%	25%	100%	40%	–	–	–	–	–	–
N#CC(CCCF)(CCc1ccc(F)cc1)c1cccnc1 (stereo not drawn) [Compound 64]	0	20%	85%	0%	100%	55%	50%	100%	–	–	–	–	–	–
N#CC(CCCF)(CCc1ccccc1F)c1cccnc1 (stereo not drawn) [Compound 66]	0	0%	100%	40%	100%	100%	100%	100%	–	–	–	–	–	–
C=CCC(C#N)(CCc1ccccc1F)c1cccnc1 (stereo not drawn) [Compound 67]	100	0%	100%	20%	100%	100%	100%	100%	–	–	–	–	–	–
CCCCC(C#N)(CCc1ccc(OCCF)cc1)c1cccnc1 (stereo not drawn) [Compound 68]	100	70%	100%	0%	100%	100%	100%	100%	–	–	–	–	–	–
CCCCC(C#N)(CCc1ccc(OCCC)cc1)c1cccnc1 (stereo not drawn) [Compound 69]	0	–	–	20%	–	–	–	–	0%	85%	100%	100%	100%	70%
C=CCC(C#N)(CCCc1ccccc1OC)c1cccnc1 (stereo not drawn) [Compound 70]	100	0%	100%	0%	100%	100%	100%	100%	–	–	–	–	–	–
CCCC(C#N)(CCCc1ccccc1OC)c1cccnc1 (stereo not drawn) [Compound 71]	100	0%	100%	80%	100%	100%	100%	100%	–	–	–	–	–	–
CCCC(C#N)(CCc1ccccc1C(F)(F)F)c1cccnc1 (stereo not drawn) [Compound 72]	0	0%	83%	80%	100%	100%	100%	100%	–	–	–	–	–	–
CCCCC(C#N)(CCc1ccccc1C(F)(F)F)c1cccnc1 (stereo not drawn) [Compound 73]	0	0%	100%	0%	70%	85%	100%	100%	–	–	–	–	–	–
CCCCC(C#N)(CCc1ccccc1F)c1cccnc1 (stereo not drawn) [Compound 74]	0	0%	100%	80%	100%	100%	100%	100%	–	–	–	–	–	–
CCCC(C#N)(CCc1ccccc1F)c1cccnc1 (stereo not drawn) [Compound 75]	0	0%	92%	0%	100%	100%	92%	100%	–	–	–	–	–	–
CCCCC(C#N)(CCCc1ccc(OC)cc1)c1cccnc1 (stereo not drawn) [Compound 76]	100	0%	100%	0%	100%	100%	100%	100%	–	–	–	–	–	–
N#CC(CCc1ccc(F)cc1)(CCC(F)(F)F)c1cccnc1 (stereo not drawn) [Compound 77]	0	35%	90%	100%	20%	15%	40%	65%	–	–	–	–	–	–
N#CC(CCCC(F)(F)F)(CCc1ccc(F)cc1)c1cccnc1 (stereo not drawn) [Compound 78]	0	100%	83%	92%	30%	50%	20%	34%	–	–	–	–	–	–
Cc1ccc(CCC(C#N)(CCCC(F)(F)F)c2cccnc2)cc1 (stereo not drawn) [Compound 79]	0	11%	100%	92%	30%	30%	5%	0%	–	–	–	–	–	–
Cc1ccc(CCC(C#N)(CCC(F)(F)F)c2cccnc2)cc1 (stereo not drawn) [Compound 80]	0	78%	100%	92%	0%	59%	5%	9%	–	–	–	–	–	–
